Assay results reported in the supplement of paper PMC10307832.

Columns and labels:
Experiment in all cases: relative viability (nuclei count vs DMSO), 5 days (fraction); higher = more cells survive
Ponatinib + Dasatinib = compound: Cc1ccc(C(=O)Nc2ccc(CN3CCN(C)CC3)c(C(F)(F)F)c2)cc1C#Cc1cnc2cccnn12 [Ponatinib] + Cc1nc(Nc2ncc(C(=O)Nc3c(C)cccc3Cl)s2)cc(N2CCN(CCO)CC2)n1 [Dasatinib] (partner 0.075 µM)
In short: (§1)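 For relative viability, nuclei counts in treated wells were divided by those in vehicle wells. Lung cancer cell lines had been pin-tool dosed in 1536-well plates the day after seeding and cultured for 5 days, then fixed and stained in one step (final 0.05% Triton X-100, 1% formaldehyde, 1 ug/ml Hoechst) and imaged at 4×. Doses were one drug alone or a fixed anchor-drug dose plus five library-drug doses (not always all listed) in √10 steps, and values are duplicate-plate medians.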

Pazopanib + Tozasertib = compound: Cc1ccc(Nc2nccc(N(C)c3ccc4c(C)n(C)nc4c3)n2)cc1S(N)(=O)=O [Pazopanib] + Cc1cc(Nc2cc(N3CCN(C)CC3)nc(Sc3ccc(NC(=O)C4CC4)cc3)n2)n[nH]1 [Tozasertib] (partner 0.1 µM)
In short: as §1

Pazopanib + Pemetrexed = compound: Cc1ccc(Nc2nccc(N(C)c3ccc4c(C)n(C)nc4c3)n2)cc1S(N)(=O)=O [Pazopanib] + Nc1nc2[nH]cc(CCc3ccc(C(=O)N[C@@H](CCC(=O)O)C(=O)O)cc3)c2c(=O)[nH]1 [Pemetrexed] (partner 0.2 µM)
In short: as §1

Ponatinib + Navitoclax = compound: Cc1ccc(C(=O)Nc2ccc(CN3CCN(C)CC3)c(C(F)(F)F)c2)cc1C#Cc1cnc2cccnn12 [Ponatinib] + CC1(C)CCC(c2ccc(Cl)cc2)=C(CN2CCN(c3ccc(C(=O)NS(=O)(=O)c4ccc(N[C@H](CCN5CCOCC5)CSc5ccccc5)c(S(=O)(=O)C(F)(F)F)c4)cc3)CC2)C1 [Navitoclax] (partner 0.5 µM)
In short: as §1

Row | Cell Line | relative viability (Ponatinib + Dasatinib; first compound 0.002 µM) | relative viability (Ponatinib + Dasatinib; first compound 0.006325 µM) | relative viability (Ponatinib + Dasatinib; first compound 0.06325 µM) | relative viability (Ponatinib + Dasatinib; first compound 0.2 µM) | relative viability (Pazopanib + Tozasertib; first compound 0.01 µM) | relative viability (Pazopanib + Tozasertib; first compound 0.03162 µM) | relative viability (Pazopanib + Tozasertib; first compound 0.1 µM) | relative viability (Pazopanib + Tozasertib; first compound 0.3162 µM) | relative viability (Pazopanib + Tozasertib; first compound 1 µM) | relative viability (Pazopanib + Pemetrexed; first compound 0.01 µM) | relative viability (Pazopanib + Pemetrexed; first compound 0.03162 µM) | relative viability (Pazopanib + Pemetrexed; first compound 0.1 µM) | relative viability (Pazopanib + Pemetrexed; first compound 0.3162 µM) | relative viability (Pazopanib + Pemetrexed; first compound 1 µM) | relative viability (Ponatinib + Navitoclax; first compound 0.002 µM) | relative viability (Ponatinib + Navitoclax; first compound 0.006325 µM) | relative viability (Ponatinib + Navitoclax; first compound 0.06325 µM) | relative viability (Ponatinib + Navitoclax; first compound 0.2 µM)
1 | NCI-H322M | 0.263 | 0.244 | 0.232 | 0.253 | 0.536 | 0.518 | 0.547 | 0.448 | 0.476 | 0.703 | 0.662 | 0.633 | 0.623 | 0.658 | 1.2 | 1.15 | 1.3 | 0.907
2 | NCI-H441 | 0.72 | 0.53 | 0.539 | 0.406 | 0.798 | 0.683 | 0.784 | 0.558 | 0.518 | 0.236 | 0.274 | 0.272 | 0.224 | 0.253 | 0.638 | 0.42 | 0.554 | 0.596
3 | NCI-H460 | 0.45 | 0.536 | 0.584 | 0.462 | 0.564 | 0.503 | 0.523 | 0.494 | 0.393 | 0.0583 | 0.0636 | 0.0629 | 0.0703 | 0.0742 | 1.04 | 1.05 | 1.24 | 1.06
4 | NCI-H520 | 0.205 | 0.201 | 0.162 | 0.139 | 0.458 | 0.416 | 0.452 | 0.438 | 0.386 | 0.642 | 0.728 | 0.768 | 0.755 | 0.602 | 0.946 | 1.1 | 0.922 | 0.646
5 | NCI-H596 | 0.505 | 0.61 | 0.479 | 0.373 |  | 0.942 | 0.856 | 0.936 | 0.761 | 0.472 | 0.494 | 0.478 | 0.522 | 0.528 | 0.845 | 0.969 | 1.03 | 0.733
6 | NCI-H647 | 0.159 | 0.171 | 0.211 | 0.117 | 0.23 | 0.279 | 0.395 | 0.43 | 0.321 | 0.174 | 0.159 | 0.164 | 0.153 | 0.177 | 1.04 | 1.07 | 1.21 | 0.935
7 | NCI-H838 | 0.275 | 0.261 | 0.305 | 0.258 | 0.278 | 0.247 | 0.29 | 0.28 | 0.295 | 0.272 | 0.231 | 0.265 | 0.252 | 0.227 | 1.1 | 1.21 | 1.19 | 0.979
8 | NCI-H1355 | 0.651 | 0.714 | 0.81 | 0.668 | 0.582 | 0.579 | 0.513 | 0.55 | 0.553 | 0.84 | 1.02 | 1.1 | 1.02 | 1.08 | 0.984 | 1.08 | 1.17 | 1.08
9 | NCI-H1395 | 0.392 | 0.404 | 0.427 | 0.393 | 0.793 | 0.715 | 0.764 | 0.915 | 0.747 | 0.744 | 0.83 | 0.886 | 0.938 | 0.932 |  | 1.15 | 1.09 | 0.977
10 | NCI-H1437 | 0.316 | 0.382 | 0.36 | 0.357 | 0.414 | 0.42 | 0.408 | 0.412 | 0.375 | 0.327 | 0.333 | 0.328 | 0.296 | 0.321 | 1.06 | 1.08 | 1.22 | 1.08
11 | NCI-H1650 | 0.298 | 0.346 | 0.327 | 0.349 | 0.47 | 0.382 | 0.443 | 0.539 | 0.312 | 0.34 | 0.376 | 0.364 | 0.403 | 0.369 | 1.1 | 1.22 | 1.49 | 0.999
12 | NCI-H1651 | 0.398 | 0.435 | 0.451 | 0.355 | 0.708 | 0.603 | 0.733 | 0.725 | 0.685 | 0.6 | 0.603 | 0.574 | 0.542 | 0.583 | 1.01 | 1.06 | 1.25 | 1.06
13 | NCI-H1666 | 0.761 | 0.829 | 0.906 | 0.853 | 0.573 | 0.649 | 0.625 | 0.609 | 0.648 | 0.932 | 0.834 | 0.92 | 0.72 | 0.847 | 0.94 | 1.15 | 1.18 | 0.979
14 | NCI-H1734 | 0.496 | 0.469 | 0.42 | 0.377 | 0.262 | 0.242 | 0.28 | 0.261 | 0.234 | 0.435 | 0.396 | 0.468 | 0.436 | 0.432 | 0.805 | 0.828 | 0.877 | 0.739
15 | NCI-H1755 | 0.453 | 0.388 | 0.362 | 0.385 | 0.584 | 0.614 | 0.561 | 0.557 | 0.567 | 0.438 | 0.427 | 0.458 | 0.456 | 0.42 | 0.962 | 0.947 | 1.02 | 0.803
16 | NCI-H1793 | 0.37 | 0.36 | 0.348 | 0.352 |  | 0.347 | 0.275 | 0.367 | 0.374 |  | 0.864 | 0.949 | 0.76 | 1.09 | 0.495 | 0.422 | 0.54 | 0.478
17 | NCI-H1915 | 0.308 | 0.33 | 0.27 | 0.267 | 0.455 | 0.422 | 0.468 | 0.407 | 0.399 | 0.509 | 0.442 | 0.472 | 0.467 | 0.474 | 0.779 | 0.795 | 0.772 | 0.746
18 | NCI-H1944 | 0.218 | 0.21 | 0.221 | 0.202 |  | 0.234 | 0.258 | 0.252 | 0.257 | 0.562 | 0.635 | 0.67 | 0.724 | 0.603 | 1.04 | 1.09 | 1.2 | 1.02
